Entries after “also recorded” stand apart in the source; their conditions may differ. Read-outs that look alike come from different tables or passages of the source.
Legend:
Smo mutations at D473 = system: Smo mutations at D473; design: method as in PMID 25008467; settings: cited from earlier work
[1] = system: Gli-Luciferase reporter in Ptch1-/- MEFs; assay: 8xGli-Luciferase reporter assay in Ptch1-/- MEFs; assay type: cell-based, mouse; settings: for IC50 / inhibition at 30 µM: Mus musculus; for IC50: read-out: IC50 Gli-Luciferase assay (range, n); for inhibition at 30 µM: compared to DMSO; for Inhibition of Gli-Luciferase (yes/no): single-dose screen at 30 μM (vismodegib 100 nM)
Experimental: (§1) Antagonist candidates were tested using Ptch1^-/- reporter mouse embryonic fibroblasts (MEFs). In Ptch1^-/- cells, the Hh pathway is constitutively activated as a result of deletion of Patched-1, the Hedgehog receptor and a functional inhibitor of Smo. The reporter cells were engineered to express the 8XGli-Luciferase reporter that faithfully monitors levels of Gli-mediated transcriptional activity as a readout of Hedgehog signalling. Firefly Luciferase is therefore constitutively expressed in these cells and its expression is inhibited by Smo antagonists such as cyclopamine. In the initial test for activity, we screened the 21 docking hits at a dose of 30 μM. […] Their ability to repress the pathway was further confirmed by quantifying transcript levels of Gli1, a target gene of the Hedgehog pathway, using qPCR (Fig 1C and S1 Table).
Ptch1^-/- MEFs stably expressing the Gli-Luciferase reporter and constitutive Renilla Luciferase were used. The Gli-Luciferase reporter is a Firefly Luciferase reporter driven by 8xGli consensus binding site in its promoter, cloned in a lentiviral plasmid carrying a puromycin resistance for selection. For the assay, 5x10^4 cells/well were plated in 48-well plates. The next day, the confluent cells were serum-starved with plain DMEM for 24 h. Drugs and compounds were added to the indicated final concentration and incubated for 24 h, each condition in duplicate. For the assay, Promega Dual Glow reagents were used. Media was removed and cells were lysed in 50 μL Passive Lysis Buffer for 10 min. 10 μL of lysate was assayed in black plates with 10 μL of each substrate, in duplicate. Luminescence was measured with an EnVision 2100 (Perkin Elmer). Firefly Luciferase luminescence was divided by the Renilla Luciferase luminescence, then normalized to vehicle condition to obtain the fold change in reporter activity.

[2] = system: Gli1 expression in Ptch1-/- MEFs; assay: qPCR of Gli1 expression in Ptch1-/- MEFs; assay type: cell-based, mouse; settings: for IC50: Mus musculus
Experimental: as §1
(§2) Ptch1^-/- MEFs or C3H10T1/2 SMO cells (overexpression of mouse Smo wt or mouse Smo D477H using a retroviral vector) were plated at a density of 2x10^5 cells/well in 12-well plates. The next day, the confluent cells were serum-starved with plain DMEM for 24 h before drugs and compounds were added to the indicated final concentration. RNA was extracted using Trizol (Life Technologies, 15596–018) after 24 h. 1 μg of RNA was DNase-treated (Life Technologies, 18047–019) before being reverse transcribed into cDNA (High-Capacity Reverse Transcription kit, Life Technologies, 4368813). Real-time quantitative PCR reactions were performed on an ABI 7900HT in 384-well plates containing 20 ng cDNA, using Power SYBR Green PCR Master Mix (Life Technologies, 4367660). Relative Gli1 mRNA levels were calculated using the comparative Ct method, normalized to Gapdh mRNA. Primers used were validated as previously described.

Smo wt = molecular target: T1, Smo wt (Mus musculus, UniProt P56726); assay: Gli1 qPCR dose-response in C3H10T1/2 cells overexpressing Smo wt; assay type: cell-based; settings: read-out: inhibition of Smo WT (dose-response, Fig 7G)
T1 construct: expressed in transfected cells; host or cells: C3H10T1/2 cells, retroviral transduction
T1 sequence (P56726 33-793): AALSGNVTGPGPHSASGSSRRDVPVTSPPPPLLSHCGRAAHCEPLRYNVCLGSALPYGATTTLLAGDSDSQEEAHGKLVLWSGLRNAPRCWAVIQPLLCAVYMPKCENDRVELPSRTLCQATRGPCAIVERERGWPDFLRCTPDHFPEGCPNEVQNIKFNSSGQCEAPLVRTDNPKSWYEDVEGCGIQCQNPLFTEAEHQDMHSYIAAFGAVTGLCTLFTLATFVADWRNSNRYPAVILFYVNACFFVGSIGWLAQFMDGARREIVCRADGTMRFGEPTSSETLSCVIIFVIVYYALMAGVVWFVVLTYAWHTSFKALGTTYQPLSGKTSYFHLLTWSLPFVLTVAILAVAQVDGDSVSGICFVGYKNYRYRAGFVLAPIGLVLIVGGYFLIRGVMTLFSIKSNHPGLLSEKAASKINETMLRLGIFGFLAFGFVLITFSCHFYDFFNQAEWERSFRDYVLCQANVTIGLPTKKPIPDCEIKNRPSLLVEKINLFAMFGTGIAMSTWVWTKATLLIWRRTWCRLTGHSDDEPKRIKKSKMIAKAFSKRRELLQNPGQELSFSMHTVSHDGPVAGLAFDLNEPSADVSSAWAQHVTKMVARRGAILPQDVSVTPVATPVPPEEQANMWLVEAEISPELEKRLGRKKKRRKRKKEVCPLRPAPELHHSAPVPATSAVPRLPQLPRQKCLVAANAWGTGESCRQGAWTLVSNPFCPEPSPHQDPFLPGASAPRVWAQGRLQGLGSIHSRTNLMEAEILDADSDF
From the text: (§3) Fig 7 Binding poses and inhibition of vismodegib-resistant Smo by 45b. (A) Side view of the complex of Smo structure (represented as purple surface, TM6 was cut) with LY2940680 in the orthosteric site (represented as light pink sticks). (B)-(F) Predicted binding modes against the Smo WT of compounds 3, 6, 44, 244 and 45b, respectively. LY2940680 is represented as light pink wires, the compounds as green sticks, hydrogen bonds as black dashed lines and important residues as sticks. […] C3H10T1/2 cells were transduced with retrovirus for the overexpression of Smo wt or Smo D477H. (H) Predicted binding modes of compound 45b against a model of D473H Smo.
as §2, with “1 μg of RNA was DNase-treated (Life Technologies, 18047–019) before being reverse transcribed into cDNA (High-Capacity Reverse Transcription kit, Life Technologies, 4368813).” left out, “Primers used were validated as previously described.” left out

[3] = molecular target: T2, mouse D477H mutant (equivalent to human D473H) of Smo (Mus musculus, UniProt P56726, D477H); assay: Gli1 qPCR dose-response in C3H10T1/2 cells overexpressing Smo D477H; assay type: cell-based
T2 construct: expressed in transfected cells; host or cells: C3H10T1/2 cells, retroviral transduction
T2 sequence (P56726 33-793 D477H): as the sequence (P56726 33-793) above, with D445H counted along it
From the text: as §3
as §2, with “1 μg of RNA was DNase-treated (Life Technologies, 18047–019) before being reverse transcribed into cDNA (High-Capacity Reverse Transcription kit, Life Technologies, 4368813).” left out, “Primers used were validated as previously described.” left out

[4] = Aggregation counter-screens (DLS, centrifugation, unrelated enzymes), overall outcome; assay type: physicochemical; settings: enzyme counter-screens
Experimental: All the antagonists with low micromolar IC50 were counter-screened for colloidal aggregation, a common mechanism of artefactual activity in early ligand discovery. […] These observations highlight the importance of counter-screening for this artefactual mechanism of action when evaluating new Smoothened antagonists.
(§4) The assays were performed as always with the addition of a centrifugation step. The antagonists were diluted in media to their final concentration. Half the solution was used as standard treatment: the media in wells was replaced with the media containing the drugs. The other half of the solution was then centrifuged for 20 min at 21,000g. The supernatant was used to replace the media in the wells.
(§5) Compounds 13b, 19b, 20b, 25b, 27b, 32b, 37b, 40b and 45b were diluted with both filtered DMEM and KPi, with a final concentration of 1% DMSO. Measurements were made using a DynaPro Plate Reader II system (Wyatt Technology) with a 60 mW laser at ~830 nm in either 96-well or 384-well plates; this particular instrument had been modified by Wyatt Technology to have a larger laser beam width that is appropriate for detecting large colloidal particles.
Both DMEM and KPi were used as buffer.

[5] = system: TOPFLASH Wnt-ß-catenin reporter (Frizzled receptors); assay: TopFlash Wnt-ß-catenin reporter assay in HEK293T cells; settings: Wnt3a-conditioned media
Experimental: We used HEK293T TopFlash cells, expressing a luciferase reporter under the control of a ß–catenin-responsive LEF/TCF promoter.
The assay was carried out in HEK293T, as described [71].

mouse Smoothened = mouse Smoothened (Mus musculus, UniProt P56726); settings: for Binding (yes/no), BODIPY-cyclopamine displacement: HEK293 mSmo-mCherry
mouse Smoothened, sequence (P56726 33-793): as the sequence (P56726 33-793) above
Experimental: Using a stable line enabling the inducible expression of Smo-mCherry, we tested whether well-behaved, non-aggregating antagonists can specifically displace BODIPY-cyclopamine bound to Smoothened using flow cytometry.
Left: average cell fluorescence was measured by flow cytometry and plotted against antagonist concentration. Representative curve are shown.
A 293 stable cell line expressing tetracycline-inducible mouse Smoothened with mCherry fused to its C-terminus was used for these experiments. Cells were grown to confluence in the presence of 1 μg/mL tetracycline for 24 h. Cells were then incubated with 10 nM BODIPY-Cyclopamine and compounds for 2 h at 37°C. For FACS, cells were first trypsinized, fixed with 4% paraformaldehyde for 20 min, washed with TBS + 0.1% Triton X-100 and then sorted (FACS). BODIPY fluorescence was measured on the FACS Fortessa and FACS data was analyzed with FlowJo software. BODIPY fluorescence in control HEK293 was used to set the background threshold. Mean fluorescence was plotted against the compound concentration to calculate its IC50. For microscopy, fixed cells were imaged. Live cells were washed with PBS before fixing.

[6] = Dynamic Light Scattering (DLS); assay type: physicochemical; settings: 1 μM
Experimental: as §5

D473H mutant of Smo = system: D473H mutant of Smo; design: method as in PMID 19726788; settings: cited from earlier work
Smoothened = molecular target: T3, Smoothened (Mus musculus, UniProt P56726); assay: Centrifugation counter screen of Smo antagonism; assay type: cell-based; settings: 20 min centrifugation; Gli-luciferase, Gli1 qPCR, bodipy-cyclopamine displacement
T3 construct: endogenous in cells; host or cells: Ptch1-/- MEFs with 8xGli-Luciferase reporter (inferred)
T3 sequence (P56726 33-793): as above
Experimental: as §4

[7] = 24 h, read-out: IC50 Gli1 qPCR (range, n)

Q: Which “efficacy in the resistant mutants” value (Smo mutations at D473) does the source give for `CN(C(=O)c1ccc(F)cc1C(F)(F)F)C1CCN(c2nnc(-c3ccnn3C)c3ccccc23)CC1` [taladegib] here?
A: Its value is “unaffected or have minor drop in efficacy”.

Q: Which IC50 ([1]; 24 h) does the source give for `CSc1nc(C)cc(-c2cc(NCc3ccccn3)nc3[nH]ccc23)n1` [Compound 45b] here?
A: Its IC50 is 3.1 µM.

Q: What about the IC50 [2, 7] of the same compound?
A: The IC50 was 5.3 µM.

Q: What about the IC50 (Smo wt) of the same compound?
A: The IC50 was 1.1 µM.

Q: What about the IC50 ([3]; C3H10T1/2 cells overexpressing mouse Smo D477H, read-out: inhibition of Smo D473H mutant (dose-response, Fig 7G)) of the same compound?
A: The IC50 was 3.1 µM.

Q: And the “shift at D473H mutant relative to WT” value ([3]; D473H vs WT)?
A: Its value is 2.7 fold.

Q: And the “outcome of aggregation counter-screens” value [4]?
A: Its value is “well-behaved antagonists”.

Q: And the “activity on TOPFLASH Wnt-ß-catenin reporter” value ([5]; 10 μM, 24 hours co-treatment)?
A: Its value is “no detectable activity; also recorded: lack of inhibition”.

Q: And the IC50 (mouse Smoothened)?
A: Its IC50 is 12.7 µM.

Q: With `COc1cc(-c2cc(NCc3ccccn3)nc3[nH]ccc23)ccc1O` [Compound 44] as the compound, how does the inhibition at 30 µM [1] read?
A: Its inhibition at 30 µM is > 50%.

Q: And the IC50 ([1]; 24 h)?
A: Its IC50 is 34.4 µM.

Q: What about the “Inhibition of Gli-Luciferase (yes/no)” value [1] of the same compound?
A: Its value is “yes”.

Q: What about the “Inhibition - Gli1 qPCR (yes/no)” value [2] of the same compound?
A: The value was “yes”.

Q: What about the IC50 [2, 7] of the same compound?
A: Its IC50 is 14 µM.

Q: And the “outcome of aggregation counter-screens” value [4]?
A: Its value is “well-behaved antagonists”.

Q: And the IC50 (mouse Smoothened)?
A: The IC50 was 15.6 µM.

Q: What about the “Binding (yes/no), BODIPY-cyclopamine displacement” value (mouse Smoothened) of the same compound?
A: Its value is “yes”.

Q: For `Cc1cccc(C(=O)Nc2cccc(NC(=O)Cc3cccnc3)c2)c1` [Compound 3], which inhibition at 30 µM [1] is on record?
A: Its inhibition at 30 µM is > 50%.

Q: What about the IC50 ([1]; 24 h) of the same compound?
A: The IC50 was 43 µM.

Q: And the “Inhibition of Gli-Luciferase (yes/no)” value [1]?
A: The value was “yes”.

Q: What about the “Inhibition - Gli1 qPCR (yes/no)” value [2] of the same compound?
A: The value was “yes”.

Q: And the IC50 [2, 7]?
A: Its IC50 is 94.8 µM.

Q: What about the “outcome of aggregation counter-screens” value [4] of the same compound?
A: Its value is “well-behaved antagonists”.

Q: And the IC50 (mouse Smoothened)?
A: The IC50 was 166 µM.

Q: What about the “Binding (yes/no), BODIPY-cyclopamine displacement” value (mouse Smoothened) of the same compound?
A: Its value is “yes”.

Q: With `NC(=O)c1cc(-c2cc(NCc3ccccn3)nc3[nH]ccc23)cs1` [Compound 25b] as the compound, how does the IC50 ([1]; 24 h) read?
A: The IC50 was 2.3 µM.

Q: What about the IC50 [2, 7] of the same compound?
A: Its IC50 is 7.8 µM.

Q: And the “outcome of aggregation counter-screens” value [4]?
A: Its value is “well-behaved antagonists”.

Q: For `NC(=O)c1cc(-c2cc(NCc3cccnc3)nc3[nH]ccc23)cs1` [Compound 37b], which IC50 ([1]; 24 h) is on record?
A: Its IC50 is 5.4 µM.

Q: And the IC50 [2, 7]?
A: Its IC50 is 8.8 µM.

Q: What about the “outcome of aggregation counter-screens” value [4] of the same compound?
A: Its value is “well-behaved antagonists”.

Q: With `COc1ccccc1C(=O)Nc1cccc(NC(=O)Cc2cccnc2)c1` [Compound 13b] as the compound, how does the IC50 ([1]; 24 h) read?
A: The IC50 was 10.9 µM.

Q: With `CS(=O)(=O)c1ccc(C(=O)Nc2ccc(Cl)c(-c3ccccn3)c2)c(Cl)c1` [vismodegib, reference compound] as the compound, how does the IC50 [1] read?
A: Its IC50 is 0.0306 µM.

Q: What about the IC50 ([2]; read-out: IC50 mGli1 qPCR (range, n)) of the same compound?
A: The IC50 was 0.0018 µM.

Q: What about the “particle formation by DLS” value [6] of the same compound?
A: The value was “does not form particles”.

Q: What about the “reduction of binding to Smo by D473H mutation” value (D473H mutant of Smo) of the same compound?
A: Its value is 100 folds.

Q: What about the “activity on TOPFLASH Wnt-ß-catenin reporter” value ([5]; 100 nM) of the same compound?
A: Its value is “lack of inhibition”.

Q: For `CCC(C)n1ncn(-c2ccc(N3CCN(c4ccc(OCC5COC(Cn6cncn6)(c6ccc(Cl)cc6Cl)O5)cc4)CC3)cc2)c1=O` (stereo not drawn) [itraconazole], which “radius of colloidal particles by DLS” value ([6]; DMEM) is on record?
A: The value was 180 nm.

Q: And the “effect of centrifugation on antagonism of Smo” value (Smoothened)?
A: Its value is “disrupted by prior-centrifugation; also recorded: largely or entirely eliminated”.

Q: Which results are given for `NC(=O)c1ccc(-c2cc(NCc3ccccn3)nc3[nH]ccc23)o1` [Compound 244]?
A: inhibition at 30 µM [1]: > 50%; IC50 ([1]; 24 h): 5.3 µM; Inhibition of Gli-Luciferase (yes/no) [1]: yes; Inhibition - Gli1 qPCR (yes/no) [2]: yes; IC50 [2, 7]: 11.3 µM; outcome of aggregation counter-screens [4]: well-behaved antagonists; IC50 (mouse Smoothened): 58.3 µM; Binding (yes/no), BODIPY-cyclopamine displacement (mouse Smoothened): yes

Q: Which results are given for `Cc1cc2c(-c3cc(NCc4ccccn4)nc4[nH]ccc34)ncnc2s1` [Compound 32b]?
A: IC50 ([1]; 24 h): 9.4 µM; IC50 [2, 7]: 12.7 µM; outcome of aggregation counter-screens [4]: well-behaved antagonists

Q: Which inhibition at 30 µM [1] does the source give for `CN(C)c1ccc(CNC(=O)Nc2ccc(-n3ccnc3)nc2)cn1` [Compound 6] here?
A: The inhibition at 30 µM was > 50%.

Q: What about the IC50 ([1]; 24 h) of the same compound?
A: Its IC50 is 20.8 µM.

Q: And the “Inhibition of Gli-Luciferase (yes/no)” value [1]?
A: The value was “yes”.

Q: What about the “Inhibition - Gli1 qPCR (yes/no)” value [2] of the same compound?
A: The value was “yes”.

Q: And the IC50 [2, 7]?
A: The IC50 was 109 µM.

Q: What about the “outcome of aggregation counter-screens” value [4] of the same compound?
A: The value was “well-behaved antagonists”.

Q: For `c1ccc(CNc2cc(-c3ccc4c(c3)CNCC4)c3cc[nH]c3n2)nc1` [Compound 19b], which IC50 ([1]; 24 h) is on record?
A: Its IC50 is 22.4 µM.
